Results published in patent US20250282768A1 (Janssen Pharmaceutica NV, priority 2022, published 2025).

System: p-IKKa levels in L363 (NIK translocated multiple myeloma) cells
Assay: Assay 2: Effect of compounds on p-IKKa levels in L363 (NIK translocated multiple myeloma) cells
Assay type: cell-based
Details: Homo sapiens, L-363, 6 h, read-out: Assay 2 IC50 (nM), p-IKKa (Ser 176/180) in BAFF stimulated L363 cells with MG132, 6 h; average if tested more than once
Procedure, shortened: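 Read-out is p-IKKa Ser176/180 by AlphaLISA SureFire in lysates. Cells were BAFF-primed (250 ng/ml) overnight or left unstimulated, then exposed 6 h at 37 °C to compound with MG132 (10 μM), 0.3% DMSO. IC50 from sigmoidal curve fit, normalized between stimulated and unstimulated controls.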

## CN1CC[C@@](O)(c2cc(-c3cccc(-c4ccnc(NCC5CCOCC5)n4)n3)no2)C1=O [Example 340, (R)-3-Hydroxy-1-methyl-3-(3-(6-(2-(((tetrahydro-2H-pyran-4-yl)methyl)amino)pyrimidin-4-yl)pyridin-2-yl)isoxazol-5-yl)pyrrolidin-2-one]
  IC50: 50 to 500 nM

## COc1cn(C)nc1C(C)Nc1nccc(-c2cccc(-c3cc([C@]4(O)CCN(C)C4=O)on3)n2)n1 (stereo partly drawn) [Example 392, (3R)-3-Hydroxy-3-(3-(6-(2-((1-(4-methoxy-1-methyl-1H-pyrazol-3-yl)ethyl)amino)pyrimidin-4-yl)pyridin-2-yl)isoxazol-5-yl)-1-methylpyrrolidin-2-one]
  IC50: > 500 nM

## Cc1nn(C)cc1Nc1nccc(-c2cccc(-c3cc([C@]4(O)CCN(C)C4=O)on3)n2)n1 [Example 29, (R)-3-(3-(6-(2-((1,3-Dimethyl-1H-pyrazol-4-yl)amino)pyrimidin-4-yl)pyridin-2-yl)isoxazol-5-yl)-3-hydroxy-1-methylpyrrolidin-2-one]
  IC50: < 50 nM

## CN1CC[C@@](O)(c2cnn(-c3cccc(-c4ccnc(Nc5cnn(C)c5)n4)n3)c2)C1=O (single isomer, unassigned) [Example 76]
  IC50: > 500 nM

## Cc1cc(-c2cccc(-c3cc([C@]4(O)CCN(C)C4=O)on3)n2)nc(Nc2cnn(C)c2)n1 [Example 207, (R)-3-Hydroxy-1-methyl-3-(3-(6-(6-methyl-2-((1-methyl-1H-pyrazol-4-yl)amino)pyrimidin-4-yl)pyridin-2-yl)isoxazol-5-yl)pyrrolidin-2-one]
  IC50: > 500 nM

## Cc1nn(CC(F)F)cc1Nc1nccc(-c2cccc(-c3cc([C@]4(O)CCN(C)C4=O)on3)n2)n1 [Example 57, (R)-3-(3-(6-(2-((1-(2,2-Difluoroethyl)-3-methyl-1H-pyrazol-4-yl)amino)pyrimidin-4-yl)pyridin-2-yl)isoxazol-5-yl)-3-hydroxy-1-methylpyrrolidin-2-one]
  IC50: < 50 nM

## CN1CC[C@@](O)(c2cn(-c3cccc(-c4ccnc(Nc5ccn(C)n5)n4)n3)nn2)C1=O [Example 75, (R)-3-Hydroxy-1-methyl-3-(1-(6-(2-((1-methyl-1H-pyrazol-3-yl)amino)pyrimidin-4-yl)pyridin-2-yl)-1H-1,2,3-triazol-4-yl)pyrrolidin-2-one]
  IC50: < 50 nM

## CN1CC[C@@](O)(c2cc(-c3cccc(-c4ccnc(Nc5ccnn5C)n4)n3)no2)C1=O [Example 26, (R)-3-Hydroxy-1-methyl-3-(3-(6-(2-((1-methyl-1H-pyrazol-5-yl)amino)pyrimidin-4-yl)pyridin-2-yl)isoxazol-5-yl)pyrrolidin-2-one]
  IC50: < 50 nM

## CCC(Nc1nccc(-c2cccc(-c3cc([C@]4(O)CCN(C)C4=O)on3)n2)n1)c1ccn(CC)n1 (stereo partly drawn) [Example 391, (3R)-3-(3-(6-(2-((1-(1-Ethyl-1H-pyrazol-3-yl)propyl)amino)pyrimidin-4-yl)pyridin-2-yl)isoxazol-5-yl)-3-hydroxy-1-methylpyrrolidin-2-one]
  IC50: > 500 nM

## CN1CC[C@@](O)(c2cnc(-c3cccc(-c4ccnc(Nc5ccn(C)n5)n4)n3)s2)C1=O (single isomer, unassigned) [Example 78]
  IC50: > 500 nM

## C[C@H](Nc1nccc(-c2cccc(-c3cc([C@]4(O)CCN(C)C4=O)on3)n2)n1)c1ccn2ccnc2c1 (single isomer, unassigned) [Example 165]
  IC50: 50 to 500 nM

## COc1nn(CC(F)F)cc1Nc1nccc(-c2cccc(-c3cc([C@@]4(O)CCN(C)C4=O)n[nH]3)n2)n1 (single isomer, unassigned) [Example 189, (*R)-3-(5-(6-(2-((1-(2,2-Difluoroethyl)-3-methoxy-1H-pyrazol-4-yl)amino)pyrimidin-4-yl)pyridin-2-yl)-1H-pyrazol-3-yl)-3-hydroxy-1-methylpyrrolidin-2-one]
  IC50: < 50 nM

## CN1CC[C@@](O)(c2cc(-c3cccc(-c4ccnc(Nc5ccc(F)cn5)n4)n3)no2)C1=O [Example 254, (R)-3-(3-(6-(2-((5-Fluoropyridin-2-yl)amino)pyrimidin-4-yl)pyridin-2-yl)isoxazol-5-yl)-3-hydroxy-1-methylpyrrolidin-2-one]
  IC50: 50 to 500 nM
